According to patent US20140221301A1, “COMBINATION TREATMENT FOR CANCER” (priority 2011, published 2014):

How the values were obtained:
[1] = test system: OCI-AML2 human leukemia cells; assay type: in vivo, SCID mice
Protocol: FIG. 3. Tigecycline has anti-leukemia activity in vivo. (A, B) Human leukemia cells (OCI-AML2) were injected subcutaneously into the flank of SCID mice. Seven days after injection, once tumors were palpable, mice were treated with tigecycline (50 mg/kg or 100 mg/kg twice daily by i.p. injection) or vehicle control (n=10 per group). Fourteen days after injection of cells, mice were sacrificed, tumors excised and the volume and mass of the tumors were measured. The tumor mass and the mean volume+SD are shown. Differences in tumor volume and mass were analyzed by an unpaired t-test: *p<0.001. (C) Tumours from two control mice, and three tigecycline-treated mice were excised after 5 days of treatment and total proteins were extracted and analyzed by western blotting for Cox-1, Cox-2, Cox-4, and tubulin. (D) Primary cells from three AML patients were injected intra-femorally into the right femur of female sub-lethally irradiated NOD/SCID mice. Three weeks after injection mice were treated with tigecycline (100 mg/kg by i.p. injection daily) or vehicle control (n=10 per group) for three weeks. Following treatment, human leukemia cell engraftment in the injected right femur was measured by FACS analysis for human CD45^+CD19^−CD33^+ cells. Data represent mean±SD of engrafted human cells. Cells from one patient experiment were used to assess secondary engraftment in a second generation of NOD/SCID mice. Equal numbers of viable leukemia cells from bone marrow of control and tigecycline treated mice were injected into irradiated NOD/SCID mice, which were not treated with tigecycline. Six weeks later, human leukemia cell engraftment in the injected right femur was measured by FACS analysis for human CD45^+CD19^−CD33^+cells. (*p<0.005, Student's t-test).
OCI-AML2 human leukemia cells (1×10^6) were injected subcutaneously into the flanks of SCID mice (Ontario Cancer Institute, Toronto, ON). Seven days after injection, once tumours were palpable, mice were treated with tigecycline twice daily (50 mg/kg or 100 mg/kg by i.p. injection) or vehicle control (n=10 per group) for 14 days. Tumor volume (tumor length x width^2×0.5236) was measured three times a week using calipers. Twenty-one days after injection of cells, mice were sacrificed, tumors excised and the volume and mass of the tumors were measured.
Given the effects of tigecycline as a potential anti-leukemia agent, tigecycline in mouse models of leukemia was evaluated. To evaluate the anti-tumor efficacy of tigecycline in vivo, human OCI-AML2 leukemia cells were injected into the flank of SCID mice. […] Tumor volume and mass were measured over time (FIG. 3A, B). […]

[2] = PK study in mice, single dose i.p.; settings: mouse, in vivo, ip, single dose 50 mg/kg i.p.
TEX cells = assay: Chemical screen, MTS assay, TEX cells; assay type: cell-based, human; settings: 10 μM, 72 hours
Excerpt: To identify compounds active against leukemia stem cells, a library of drugs (n=312) with well-characterized pharmacokinetics and toxicology and a wide therapeutic window was compiled. This library was then screened to identify agents that reduced the viability of TEX and M9-ENL1 cells. TEX and M9-ENL1 cells were derived from lineage-depleted human cord blood cells (Lin-CB) transduced with TLS-ERG or MLL-ENL oncogenes, respectively, and, as shown previously, display properties of stem cells including hierarchal differentiation and marrow repopulation^14, 15. In this screen, TEX and M9-ENL1 cells were treated with aliquots of the compounds. After incubation, cell growth and viability was measured by the MTS assay. From this screen, tigecycline was identified.
TEX, and M9-ENL-1 cells were seeded into 96-well polystyrene tissue culture plates (Corning). […] 72 (TEX) and 48 (M9-ENL-1) hours after incubation, cell growth and viability was measured by MTS assay. […]
Cell growth and viability was assessed by the MTS assay (Promega, Madison, Wis.) according to the manufacturer's instructions. Apoptosis and cell death was measured by Annexin V-fluroscein isothiocyanate (FITC; Biovision Research Products, Mountain View, Calif.), propidium iodide staining and flow cytometry according to the manufacturer's instructions and as previously described^30. […]

[3] = 50 mg/kg or 100 mg/kg twice daily i.p., 14 days

## CN(C)c1cc(NC(=O)CNC(C)(C)C)c(O)c2c1C[C@H]1C[C@H]3[C@H](N(C)C)C(O)=C(C(N)=O)C(=O)[C@@]3(O)C(O)=C1C2=O [tigecycline]
[1]; 50 mg/kg bid for 5 days, western blotting
  expression of Cox-1 and Cox-2 relative to Cox-4 in tumours: preferential decreased expression
[1]; [3]
  decrease of tumor mass compared to vehicle control: up to 70%
  decrease of tumor volume compared to vehicle control: up to 70%
[1]; mouse, in vivo
  toxicity in treated mice: No evidence of toxicity
[2]
  Tmax: ~0.5 h
  half-life: ~4.5 h
TEX cells
  cell growth and viability in screen: cell growth inhibitor
